According to US8598132B2, “Glycosylated indolocarbazoles, method for obtaining same and uses thereof” (Universidad de Oviedo, priority 2008, dated 2013):

Target: T1, PDK1 (Homo sapiens, UniProt O15530)
T1 sequence (O15530 1-556): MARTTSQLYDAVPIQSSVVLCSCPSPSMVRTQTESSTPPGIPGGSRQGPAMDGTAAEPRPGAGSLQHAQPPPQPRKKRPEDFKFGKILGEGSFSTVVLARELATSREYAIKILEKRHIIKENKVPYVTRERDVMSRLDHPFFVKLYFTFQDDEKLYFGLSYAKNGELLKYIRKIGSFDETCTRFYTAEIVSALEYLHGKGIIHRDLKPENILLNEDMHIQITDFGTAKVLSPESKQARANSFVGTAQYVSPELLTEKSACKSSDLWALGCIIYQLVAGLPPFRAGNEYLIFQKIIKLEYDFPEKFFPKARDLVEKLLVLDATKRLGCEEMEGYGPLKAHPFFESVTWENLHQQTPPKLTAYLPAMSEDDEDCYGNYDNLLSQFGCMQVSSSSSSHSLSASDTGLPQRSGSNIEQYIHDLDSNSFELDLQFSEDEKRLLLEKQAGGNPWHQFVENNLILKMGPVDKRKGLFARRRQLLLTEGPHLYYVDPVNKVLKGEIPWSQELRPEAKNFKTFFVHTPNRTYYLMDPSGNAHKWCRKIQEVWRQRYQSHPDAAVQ
Experiment: LabChip (Caliper) kinase assay, PDK1
Format: biochemical
Conditions: read-out: remaining kinase activity (in %) / percentage of inhibition; for inhibition at 0.01 µM: compound at 10 nM; for inhibition at 0.1 µM: compound at 100 nM
Protocol: The analysis of kinase activity described here was performed using LabChip (Caliper Life Sciences), specifically the Caliper LC3000 and the EZ Reader II instruments.
The kinase assay used measures the conversion of a fluorescent peptide (substrate) to a phosphorylated product. The reaction mixture, in a microplate well, is introduced by a capillary in a chip where the non-phosphorylated substrate and the phosphorylated product are separated by […]. The intensity of the fluorescent signal over time is related to the reaction progress. The phosphorylated product migrates quicker than the non-phosphorylated substrate and the signals of the two forms of the peptide appear as differentiated peaks. The Caliper determines the peak height and calculates the ratio of product to the peak sum (P/(P+S)). This value is used to compare wells with compounds and wells with controls and thus determine the % of inhibition for the given product.
The followings kinases were used for the enzymatic inhibition studies, between brackets the value of the Michaelis-Menten constant, Km, of the ATP (Adenosine triphosphate) for each kinase, in μM: obtained from Carna Biosciences: MAPKAPK2 (4.6), AurA (3.6), AurB (5), PKCζ (3.8), RSK1 (23.3), PRAK (5), Erk1 (33.4), PKD2 (32.1), CK1d (16.3), CHK1 (33), ABL (61.7), FYN (36), LYNa (17), CHK2 (57.8), MET (79.5), LCK (28.5), SRC (38), GSK3β (7.3), Erk2 (62.1), PKACα (1.7), AKT2 (186.1), INSR (871.8), p38a (396.5), AKT1(48), MSK1 (21.2), PKCβ2 (84.8), ROCK2 (3.3), PIM2 (4.9), AMPK (38.6), KDR (164.8), IRAK4 (196.5), SGK1 (121.8), SYK (33.5); obtained from Invitrogen: CDK2 (57.6), BTK (123), HGK (80); obtained from Upstate: MST2 (36.6), PKGα (16), PAK2 (1.9), IGF1R (320), FGFR1 (171), MARK1 (33), CAMK2δ (22.4), c-TAK1 (66), DYRK1a (18.1), CaMK4 (3.9), FLT3 (350), c-Raf (6.2), P70S6K (95).
The compounds were dissolved in 100% DMSO and were diluted at 25 times the final concentration desired for the assay. In the case of the determination of Cl50, serial dilutions were made to reach eight concentrations and give rise to the inhibition curve. 1 μL of each concentration is transferred, in duplicate to a 384-well microplate. 12 μL of enzymatic buffer is added to each well containing purified kinase (several suppliers as indicated above), 100 mM HEPES, pH 7.5, 1 mM DTT (Calbiochem), 0.002% Brij-35 (Sigma) and also in presence of 10 mM MgCl2 as cofactor, except for INSR and IRAK4 wherein 10 mM MnCl2 is used instead of MgCl2. For the kinases CAMK26 and CAMK4, 1 mM CaCl2 and 6.7 μg/mL of calmodulin are also added. For KDR kinase, 0.05% of the CHAPSO detergent is added. For the c-Raf kinase, 10 mM MnCl2 is added. For PKCβ2 0.02 μg/mL of PS/PMA is added. For PKGα se 10 μM of cGMP (cyclic guanosine monophosphate) is added. The compound and the enzyme are left for 15 minutes preincubation and, then, the following are added to each well: 12 μL of peptide buffer/ATP containing 100 mM HEPES, pH 7.5, 1.5 μM peptide marker with fluorescein (specific for the corresponding kinase), ATP (at concentration KM), and 0.002% Brij-35 to start the reaction. Generally, the reactions are incubated for 1-1.5 h at ambient temperature to obtain an adequate conversion (15-40%) of the peptide to the phosphorylated product. The reactions were ended by the addition of 45 μL of buffer containing 0 mM EDTA. The microplates were read by the LabChip 3000 using a 12-channel LabChip. The P/(P+S) values were obtained as described above and the CI50 curves were generated using XIfit.
For example, the activity of the Dyrk1a kinase is inhibited in 87% by the compound of formula (III) and completely by the compound of formula (XII) when used at a concentration of 10 nM.

Row | SMILES | inhibition at 0.01 µM [%] | inhibition at 0.1 µM [%]
1 | C[C@@H]1O[C@@H](n2c3ccccc3c3c4c(c5c6ccccc6[nH]c5c32)C(=O)NC4=O)[C@H](O)[C@H](O)[C@H]1O [formula (III), N^13-1′-β-L-rhamnosylarcyriaflavin] | -6 | 46
2 | C[C@@H]1O[C@@H](n2c3ccccc3c3c4c(c5c6ccccc6[nH]c5c32)C(=O)NC4=O)C[C@H](O)[C@H]1O [formula (IV), N^13-1′-β-L-olivosylarcyriaflavin] | 7 | 71
3 | C[C@@H]1O[C@@H](n2c3ccccc3c3c4c(c5c6ccccc6[nH]c5c32)C(=O)NC4=O)C[C@@H](O)[C@H]1O [formula (V), N^13-1′-β-L-digitoxosylarcyriaflavin] | 61 | 97
4 | C[C@H]1O[C@@H](n2c3ccccc3c3c4c(c5c6ccccc6[nH]c5c32)C(=O)NC4=O)C[C@@H](O)[C@@H]1O [formula (VI), N^13-1′-β-D-olivosylarcyriaflavin] | 21 | 76
5 | C[C@@H]1O[C@@H](n2c3ccccc3c3c4c(c5c6ccccc6[nH]c5c32)CNC4=O)[C@H](O)[C@H](O)[C@H]1O [formula (XII), N^13-1′-β-L-rhamnosyl-k252c] | -10 | 15
6 | C[C@@H]1O[C@@H](n2c3ccccc3c3c4c(c5c6ccccc6[nH]c5c32)CNC4=O)C[C@H](O)[C@H]1O [formula (XIII), N^13-1′-β-L-olivosyl-k252c] | 9 | 81
7 | C[C@@H]1O[C@@H](n2c3ccccc3c3c4c(c5c6ccccc6[nH]c5c32)CNC4=O)C[C@@H](O)[C@H]1O [formula (XIV), N^13-1′-β-L-digitoxosyl-k252c] | 30 | 94
8 | C[C@H]1O[C@@H](n2c3ccccc3c3c4c(c5c6ccccc6[nH]c5c32)CNC4=O)C[C@@H](O)[C@@H]1O [formula (XV), N^13-1′-β-D-olivosyl-k252c] | 3 | 81
